From US11891394B1, “Pyrrolo[2,3-c][1,6]naphthyridine-8-carboxylic acid compounds as CK2 inhibitors” (KING FAISAL UNIVERSITY, priority 2023, dated 2024)

Legend:
PC3 (prostate) = experiment: In vitro cytotoxic activity (MTT) assay, PC3; type: cell-based; conditions: Homo sapiens, exposed 96 hours, read-out: IC50, 50% inhibition of cell proliferation
Experimental: (§1) Compounds 1-16 were screened for their in vitro cytotoxic activity utilizing a 3-(4,5-dimethyl-thiazol-2-yl)-2,5-diphenyltetrazolium bromide (MTT) assay against selected cancer human cell lines consisting of PC3 (prostate), HCT116 (colon), A375 (melanoma), H1299 (lung), MIAPaCa-2 (pancreas), HL60 (leukemia), MCF7 (breast), MDA-MB-231 (breast) (T. Mosmann, J. Immunol. Meth., 1983, 65, 55-63). The cells were cultured at 37° C. in RMPI1640 medium supplemented with 10% fetal bovine serum, 50 IU/mL penicillin, and 50 μg/mL streptomycin in a 5% CO2 incubator. All cells were sub-cultured 3 times/week by trypsinisation. Viable cells were seeded and allowed to adhere for 12 h before a test drug was added in 96-well plates at an initial density of 1.0×10^5 cells/mL. Tumour cell lines were separately exposed to various concentrations of the tested compounds followed by incubation at a temperature of 37° C. during 96 h inside a medium of fresh RMPI 1640. Cells were subsequently incubated at 37° C. using MTT at 0.5 mg/mL during 4 h. After removal of supernatant, formazan crystals were dissolved in isopropanol and the optical density was measured at 570 nm. CX-4945 was used as a positive control.

[1] = target: T1, recombinant human CK2 (RRββ-holoenzyme) (Homo sapiens, UniProt P68400); experiment: CK2 Kinase Assay (33P-ATP, peptide RRRDDDSDDD); type: biochemical; conditions: final ATP 15 μM, 10 min at 30° C.; read-out: IC50, protein kinase CK2 activity
T1 construct: purchased Millipore
T1 sequence (P68400 whole entry): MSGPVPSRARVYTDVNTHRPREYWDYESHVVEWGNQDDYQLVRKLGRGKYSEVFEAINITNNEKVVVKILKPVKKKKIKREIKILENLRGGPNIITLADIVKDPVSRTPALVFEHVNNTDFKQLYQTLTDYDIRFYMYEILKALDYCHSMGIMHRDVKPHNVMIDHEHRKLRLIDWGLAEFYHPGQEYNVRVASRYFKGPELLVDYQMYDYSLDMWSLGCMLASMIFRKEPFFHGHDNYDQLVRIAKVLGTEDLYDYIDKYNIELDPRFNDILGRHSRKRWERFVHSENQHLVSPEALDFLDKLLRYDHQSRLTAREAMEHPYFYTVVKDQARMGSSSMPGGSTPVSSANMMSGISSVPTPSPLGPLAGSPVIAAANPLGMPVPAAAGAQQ
T1 sequence (P67870 whole entry partner): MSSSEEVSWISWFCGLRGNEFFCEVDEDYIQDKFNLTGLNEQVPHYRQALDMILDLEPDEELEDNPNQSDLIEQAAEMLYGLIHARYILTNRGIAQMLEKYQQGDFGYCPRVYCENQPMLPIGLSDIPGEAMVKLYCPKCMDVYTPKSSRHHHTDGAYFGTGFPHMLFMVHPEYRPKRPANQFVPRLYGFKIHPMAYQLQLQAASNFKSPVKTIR
Experimental: CK2 Kinase Assay was conducted using the protocol as described in Pierre F. et al; J. Med. Chem. 2011, 54, 635-654. The tested compounds in aqueous solution were added at a volume of 10 μL to a reaction mixture comprising 10 μL of assay dilution buffer (ADB; 20 mM MOPS, pH 7.2, 25 mM β-glycerol phosphate, 5 mM EGTA, 1 mM sodium orthovanadate, and 1 mM dithiothreitol), 10 μL of substrate peptide (RRRDDDSDDD, dissolved in ADB at a concentration of 1 mM), 10 μL of recombinant human CK2 (RRββ-holoenzyme, 25 ng dissolved in ADB; Millipore). Reactions were initiated by the addition of 10 μL of ATP solution (90% 75 mMMgCl2, 75 μM ATP (final ATP concentration: 15 μM) dissolved in ADB; 10% [γ-33P] ATP (stock 1 mCi/100 μL; 3000 Ci/mmol (Perkin-Elmer) and maintained for 10 min at 30° C. The reactions were quenched with 100 μL of 0.75% phosphoric acid and then transferred to and filtered through a phosphor cellulose filter plate (Millipore). After washing each well five times with 0.75% phosphoric acid, the plate was dried under vacuum for 5 min and, following the addition of 15 μL of scintillation fluid to each well, the residual radioactivity was measured using a Wallac […] counter. The IC50 values were derived from eight concentrations of test inhibitors.

HL60 (leukemia) = experiment: In vitro cytotoxic activity (MTT) assay, HL60; type: cell-based; conditions: Homo sapiens, HL-60, exposed 96 hours, read-out: IC50, 50% inhibition of cell proliferation
Experimental: as §1

MDA-MB-231 (breast) = experiment: In vitro cytotoxic activity (MTT) assay, MDA-MB-231; type: cell-based; conditions: Homo sapiens, exposed 96 hours, read-out: IC50, 50% inhibition of cell proliferation
Experimental: as §1

HCT116 (colon) = experiment: In vitro cytotoxic activity (MTT) assay, HCT116; type: cell-based; conditions: Homo sapiens, HCT-116, exposed 96 hours, read-out: IC50, 50% inhibition of cell proliferation
Experimental: as §1

H1299 (lung) = experiment: In vitro cytotoxic activity (MTT) assay, H1299; type: cell-based; conditions: Homo sapiens, NCI-H1299, exposed 96 hours, read-out: IC50, 50% inhibition of cell proliferation
Experimental: as §1

A375 (melanoma) = experiment: In vitro cytotoxic activity (MTT) assay, A375; type: cell-based; conditions: Homo sapiens, A-375, exposed 96 hours, read-out: IC50, 50% inhibition of cell proliferation
Experimental: as §1

MIAPaCa-2 (pancreas) = experiment: In vitro cytotoxic activity (MTT) assay, MIAPaCa-2; type: cell-based; conditions: Homo sapiens, MIA PaCa-2, exposed 96 hours, read-out: IC50, 50% inhibition of cell proliferation
Experimental: as §1

MCF7 (breast) = experiment: In vitro cytotoxic activity (MTT) assay, MCF7; type: cell-based; conditions: Homo sapiens, exposed 96 hours, read-out: IC50, 50% inhibition of cell proliferation
Experimental: as §1

With O=C(O)c1cc2c([nH]1)c(Nc1cccc(Cl)c1)nc1ccncc12 [Compound 1, 6-((3-chlorophenyl)amino)-7H-pyrrolo[2,3-c][1,6]naphthyridine-8-carboxylic acid] the IC50 (PC3 (prostate)) was 1800 nM, the IC50 [1] was 21 nM and the IC50 (HL60 (leukemia)) was 2800 nM. It also gave an IC50 (MDA-MB-231 (breast)) of 3200 nM, an IC50 (HCT116 (colon)) of 1600 nM and an IC50 (H1299 (lung)) of 1100 nM. It also gave an IC50 (A375 (melanoma)) of 2500 nM, an IC50 (MIAPaCa-2 (pancreas)) of 1300 nM and an IC50 (MCF7 (breast)) of 3900 nM.
